# Earlier results, collected in patent US20210393932A1, “DERMAL PATCHES AND GLASS SWABS FOR APPLICATION OF TOPICAL IMMUNOSENSITIZERS” (Squarex, LLC, priority 2020, published 2021).
# Test system: common warts and alopecia areata
# Settings: solutions of 0.05% to 2.0% weight/volume, vehicle almost always acetone, applied repeatedly (Buckley et al., Lee et al.); cited from earlier work
row,Compound,treatment of common warts and alopecia areata
1,O=c1c(-c2ccccc2)c1-c1ccccc1 [diphenylcyclopropenone],used successfully
2,"O=[N+]([O-])c1ccc(Cl)c([N+](=O)[O-])c1 [DNCB, 1-chloro-2,4-dinitrobenzene]",used successfully
